Measured values: patent US9718790B2, “Triazine derivative and pharmaceutical composition having an analgesic activity comprising the same” (SHIONOGI & CO., LTD., priority 2010, dated 2017)

Each molecule was assayed against human P2X3 receptor (Homo sapiens (Human), UniProt P56373) (assay: Evaluation of human P2X3 receptor inhibitory activity (Fluo-3 calcium fluorescence, FDSS 3000, ATP stimulation)). Conditions: C6BU-1 cells stably expressing human P2X3 receptor.
Format: cell-based
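Note: stimulus was 50 nM ATP with fluorescence followed for 3 min, and the response per well was peak post-ATP fluorescence divided by the reading at measurement start.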

Chain of human P2X3 receptor (P56373 whole entry): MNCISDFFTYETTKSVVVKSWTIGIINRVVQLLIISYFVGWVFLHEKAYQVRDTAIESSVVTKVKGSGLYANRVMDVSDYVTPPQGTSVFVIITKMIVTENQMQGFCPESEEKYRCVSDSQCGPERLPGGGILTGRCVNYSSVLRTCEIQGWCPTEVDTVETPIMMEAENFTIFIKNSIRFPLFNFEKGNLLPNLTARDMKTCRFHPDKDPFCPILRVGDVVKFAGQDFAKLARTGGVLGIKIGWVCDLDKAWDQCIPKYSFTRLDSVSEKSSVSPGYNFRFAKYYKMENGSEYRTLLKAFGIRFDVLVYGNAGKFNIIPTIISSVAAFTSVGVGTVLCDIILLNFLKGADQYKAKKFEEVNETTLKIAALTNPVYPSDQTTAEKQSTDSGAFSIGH

Compound | IC50
CCCOc1ccc(/N=c2\[nH]c(=O)n([C@H](C)[C@H](C)C(=O)OC)c(=O)n2Cc2ccc(C)cc2)cc1 [Compound I-1313] | 62 nM
COC(=O)[C@H](C)[C@H](C)n1c(=O)[nH]/c(=N\c2ccc(CC(C)C)c(Cl)c2)n(Cc2ccc(Cl)cc2)c1=O [Compound I-1435] | 61 nM
CCOC(=O)CCn1c(=O)[nH]/c(=N\c2ccc(CC(C)C)c(Cl)c2)n(Cc2ccc(C)cc2)c1=O [Compound I-1426] | 50 nM
COC(=O)c1cc(Oc2ccc(/N=c3\[nH]c(=O)n(CCOC4CCCCO4)c(=O)n3Cc3ccc(Cl)cc3)cc2)no1 (centres unmarked) [Compound I-2113] | 1 nM
COc1cc(Cn2c(=O)[nH]/c(=N\c3ccc(OC(C)C)c(F)c3)n(Cc3ccc(Cl)cc3)c2=O)ccn1 [Compound I-0642] | 5 nM
CCn1c(=O)[nH]/c(=N\c2ccc(Oc3ccnc(C(=O)OC)c3)cc2)n(Cc2ccc(Cl)cn2)c1=O [Compound I-2186] | 104 nM
C[C@@H](Cn1c(=O)[nH]/c(=N\c2ccc(OCCO)cc2)n(Cc2ccc(Cl)cc2)c1=O)C(=O)O [Compound I-0733] | 287 nM
COC(=O)Cn1c(=O)[nH]/c(=N\c2ccc(OC(C)C)c(Cl)c2)n(Cc2ccc(Cl)cc2)c1=O [Compound I-0660] | 11 nM
CCc1cc2cc(/N=c3\[nH]c(=O)n(C[C@H](C)C(=O)O)c(=O)n3Cc3ccc(Cl)cc3)ccc2s1 [Compound I-1964] | 277 nM
Cc1ccc(Cn2c(=O)n(C[C@H](C)C(=O)O)c(=O)[nH]/c2=N\c2ccc(OC3CCCC3)cc2)cc1 [Compound I-1189] | 33 nM
Cc1cc(Oc2ccc(/N=c3\[nH]c(=O)n(CCC(=O)O)c(=O)n3CC3CCC(C)CC3)cc2)ccn1 (centres unmarked) [Compound I-1976] | 17 nM
COC(=O)[C@@H](C)[C@@H](C)n1c(=O)[nH]/c(=N\c2ccc(CC(C)C)c(Cl)c2)n(Cc2ccc(C)cc2)c1=O [Compound I-1439] | 39 nM
CCn1c(=O)[nH]/c(=N\c2ccc(Oc3cccc(C(=O)O)n3)cc2)n(Cc2ccc(C)cc2)c1=O [Compound I-2181] | 4 nM
Cc1ccc(Oc2ccc(/N=c3\[nH]c(=O)n(CC(N)=O)c(=O)n3Cc3ccc(Cl)cc3)cc2)cn1 [Compound I-1944] | 11 nM
O=c1[nH]/c(=N\c2ccc(OCC3CC3)cc2)n(Cc2ccc(Cl)cc2)c(=O)n1CCCO [Compound I-1917] | 23 nM
COC(=O)[C@H](C)[C@H](C)n1c(=O)[nH]/c(=N\c2ccc(OCC(C)C)cc2)n(Cc2ccc(C)cc2)c1=O [Compound I-1331] | 56 nM
COC(=O)[C@@H](C)Cn1c(=O)[nH]/c(=N\c2ccc3oc(C)cc3c2)n(Cc2ccc(C)cc2)c1=O [Compound I-0671] | 15 nM
CCn1c(=O)[nH]/c(=N\c2ccc(Oc3ccnc(NC(C)=O)c3)cc2)n(Cc2ccc(Cl)cc2)c1=O [Compound I-2216] | 5 nM
COC(=O)[C@@H](C)Cn1c(=O)[nH]/c(=N\c2ccc3c(c2)CCC3)n(Cc2ccc(Cl)cc2)c1=O [Compound I-0769] | 207 nM
COCc1cc(/N=c2\[nH]c(=O)n(CCC(=O)O)c(=O)n2Cc2ccc(C)cc2)ccc1OC(C)C [Compound I-1428] | 926 nM
COC(=O)CCCn1c(=O)[nH]/c(=N\c2ccc3nc(C)sc3c2)n(Cc2ccc(Cl)cc2)c1=O [Compound I-2142] | 6 nM
C[C@@H](Oc1ccc(/N=c2\[nH]c(=O)n(CC(=O)NCCO)c(=O)n2Cc2ccc(Cl)cc2)cc1)C(F)(F)F [Compound I-1999] | 28 nM
CCCc1ccc(/N=c2\[nH]c(=O)n(C[C@H](C)C(=O)O)c(=O)n2Cc2ccc(Cl)cc2)cc1C [Compound I-1213] | 104 nM
COC(=O)[C@@H](C)[C@@H](C)n1c(=O)[nH]/c(=N\c2ccc(OCC3CC3)cc2)n(Cc2ccc(Cl)cc2)c1=O [Compound I-1316] | 54 nM
Cc1cc(Oc2ccc(/N=c3\[nH]c(=O)n(CC(=O)NCCO)c(=O)n3Cc3ccc(Cl)cc3)cc2)ccn1 [Compound I-1928] | 5 nM
CCOC(=O)c1cnc(Oc2ccc(/N=c3\[nH]c(=O)n(CC)c(=O)n3Cc3ccc(Cl)cc3)cc2)o1 [Compound I-2187] | 44 nM
COC(=O)[C@H](C)Cn1c(=O)[nH]/c(=N\c2ccc(OC(C)C)c(C)c2)n(Cc2ccc(Cl)cc2)c1=O [Compound I-0589] | 6 nM
CC(C)Oc1ccc(/N=c2\[nH]c(=O)n(CC(=O)NC(CO)CO)c(=O)n2Cc2ccc(Cl)cc2)cc1Cl [Compound I-0665] | 4 nM
COC(=O)[C@H](C)Cn1c(=O)[nH]/c(=N\c2ccc(OC(C)C)c(C)c2)n(CC2CCCCC2)c1=O [Compound I-0631] | 10 nM

Same assay, conditions: C6BU-1 cells stably expressing human P2X3 receptor, Fluo-3 fluorescence, FDSS 3000

Compound | IC50
CCn1c(=O)[nH]/c(=N\c2ccc(Oc3cncc(C(=O)O)c3)cc2)n(Cc2ccc(Cl)cc2)c1=O [Compound I-1885] | 7 nM
C[C@@H](C(=O)O)[C@H](C)n1c(=O)[nH]/c(=N\c2ccc3c(c2)nc(-c2ccccc2)n3C)n(Cc2ccc(Cl)cc2)c1=O [Compound I-1812] | 630 nM
COC(=O)[C@@H](C)Cn1c(=O)[nH]/c(=N\c2ccc(OCC3CC3)c(Cl)c2)n(Cc2ccc(C)cc2)c1=O [Compound I-0958] | 30 nM
O=c1[nH]/c(=N\c2ccc(Oc3ccc(O)nc3)cc2)n(Cc2ccc(Cl)cc2)c(=O)n1CCO [Compound I-1789] | 30 nM
CCOc1ccc(/N=c2\[nH]c(=O)n(C[C@@H](C)C(=O)O)c(=O)n2Cc2ccc(C)cc2)cc1Cl [Compound I-1107] | 43 nM
CCCOc1ccc(/N=c2\[nH]c(=O)n(C[C@@H](C)C(=O)O)c(=O)n2Cc2ccc(Cl)cc2)cc1 [Compound I-1035] | 65 nM
COC(=O)[C@H](C)[C@H](C)n1c(=O)[nH]/c(=N\c2ccc(OC(C)C)c(F)c2)n(Cc2ccc(C)cc2)c1=O [Compound I-0967] | 19 nM
CCOC(=O)CCn1c(=O)[nH]/c(=N\c2ccc(O[C@H](C)CC)c(Cl)c2)n(Cc2ccc(C)cc2)c1=O [Compound I-1020] | 6 nM
CCc1nc2ccc(/N=c3\[nH]c(=O)n(CCCO)c(=O)n3Cc3ccc(Cl)cc3)cc2s1 [Compound I-1622] | 4 nM
O=C(Cn1c(=O)[nH]/c(=N\c2ccc(Oc3ccc(O)nc3)cc2)n(Cc2ccc(Cl)cc2)c1=O)NCCO [Compound I-1902] | 8 nM
CC(=O)NCCCn1c(=O)[nH]/c(=N\c2ccc(O[C@H](C)C(F)(F)F)cc2)n(Cc2ccc(Cl)cc2)c1=O [Compound I-1615] | 12 nM
CCc1nc2ccc(/N=c3\[nH]c(=O)n(CC4(C(=O)O)CC4)c(=O)n3Cc3ccc(C)cc3)cc2s1 [Compound I-1556] | 11 nM
O=C(O)c1cc(Oc2ccc(/N=c3\[nH]c(=O)n(CCO)c(=O)n3Cc3ccc(Cl)cc3)cc2)ccn1 [Compound I-1797] | 6 nM
COC(=O)[C@@H](C)Cn1c(=O)[nH]/c(=N\c2ccc(OC(F)F)cc2)n(Cc2ccc(Cl)cc2)c1=O [Compound I-1166] | 126 nM
COC(=O)[C@H](C)[C@H](C)n1c(=O)[nH]/c(=N\c2ccc3nc(C)[nH]c3c2)n(Cc2ccc(Cl)cc2)c1=O [Compound I-1795] | 795 nM
CCOC(=O)C1(Cn2c(=O)[nH]/c(=N\c3ccc(OCC)c(Cl)c3)n(Cc3ccc(Cl)cc3)c2=O)CC1 [Compound I-0918] | 14 nM
Cc1cc(/N=c2\[nH]c(=O)n(C3CNC3)c(=O)n2Cc2ccc(Cl)cc2)ccc1OC(C)C [Compound I-1709] | 167 nM
Cc1cc(/N=c2\[nH]c(=O)n(CC3CCN(CC(=O)O)CC3)c(=O)n2Cc2ccc(Cl)cc2)ccc1OC(C)C [Compound I-1648] | 160 nM
CC(C)n1c(=O)nc(Nc2ccc3oc(=O)[nH]c3c2)n(Cc2ccc(Cl)cc2)c1=O [Compound I-0249] | 953 nM
COC(=O)[C@H](C)[C@H](C)n1c(=O)[nH]/c(=N\c2ccc(OCC3CC3)c(Cl)c2)n(Cc2ccc(C)cc2)c1=O [Compound I-0969] | 47 nM
Cc1cc(/N=c2\[nH]c(=O)n(CC3(CO)COC3)c(=O)n2Cc2ccc(Cl)cc2)ccc1OC(C)C [Compound I-0906] | 8 nM
C[C@@H](C(=O)O)[C@H](C)n1c(=O)[nH]/c(=N\c2ccc3[nH]ncc3c2)n(Cc2ccc(Cl)cc2)c1=O [Compound I-1743] | 861 nM

Same assay, conditions: human P2X3 receptor, Test Example 1

Compound | IC50
O=c1[nH]/c(=N\c2ccc(Oc3ccn[nH]3)cc2)n(Cc2ccc(Cl)cc2)c(=O)n1CCCO [Compound I-2452] | 36 nM
CCn1c(=O)[nH]/c(=N\c2ccc([S+]([O-])c3ccc(C(=O)O)cc3)cc2)n(Cc2ccc(Cl)cc2)c1=O (centres unmarked) [Compound I-2631] | 475 nM
Cc1ccc(Cn2c(=O)n(CCC(=O)O)c(=O)[nH]/c2=N\c2ccc(Oc3ccc(C#N)cn3)cc2)cc1 [Compound I-2635] | 8 nM
O=c1[nH]/c(=N\c2ccc(Oc3nccs3)cc2)n(Cc2ccc(Cl)cc2)c(=O)n1C(CO)CO [Compound I-2541] | 118 nM
Cc1ccc(Cn2c(=O)n(C[C@H](C)C(=O)O)c(=O)[nH]/c2=N\c2ccc(OC3CC3)cc2)cc1 [Compound I-1516] | 49 nM
CCn1c(=O)[nH]/c(=N\c2ccc(Oc3ccc(NCC(N)=O)nc3)cc2)n(Cc2ccc(Cl)cc2)c1=O [Compound I-2625] | 3 nM
CCn1c(=O)[nH]/c(=N\c2ccc3nc(OCC(=O)O)sc3c2)n(Cc2ccc(Cl)cc2)c1=O [Compound I-2326] | 108 nM
CCCOc1ccc(/N=c2\[nH]c(=O)n(C[C@H](CC)C(=O)O)c(=O)n2Cc2ccc(Cl)cc2)cc1 [Compound I-0890] | 32 nM
COC(=O)C1(Cn2c(=O)[nH]/c(=N\c3ccc(OC(C)C)c(C)c3)n(Cc3ccc(Cl)cc3)c2=O)COC1 [Compound I-1480] | 2 nM
COC(=O)c1cccc(Oc2ccc(/N=c3\[nH]c(=O)n(C)c(=O)n3Cc3ccc(Cl)cc3)cc2)n1 [Compound I-2271] | 36 nM
CNC(=O)Cn1c(=O)[nH]/c(=N\c2ccc(Oc3ncccn3)cc2)n(Cc2ccc(Cl)cc2)c1=O [Compound I-2687] | 35 nM
CCn1c(=O)[nH]/c(=N\c2ccc(Oc3cncc(C(N)=O)n3)cc2)n(Cc2ccc(C)cc2)c1=O [Compound I-2472] | 3 nM
CCn1c(=O)[nH]/c(=N\c2ccc(Oc3ccc(C(=O)O)nn3)cc2)n(Cc2ccc(C)cc2)c1=O [Compound I-2383] | 15 nM
CCOC(=O)CCn1c(=O)[nH]/c(=N\c2ccc3nc(C)sc3c2)n(Cc2ccc(C)cc2)c1=O [Compound I-1519] | 2 nM
